Patent US20070015827A1, “Methods and compositions for treating ophthalmic conditions via serum retinol, serum retinol binding protein (RBP), and/or serum retinol-RBP modulation” (Sytera, Inc., priority 2005, published 2007)
“Also recorded” adds a separate entry of the source.

Key:
[1] = system: wild-type and abca4 −/− mice; conditions: mouse, in vivo
Source text: Delayed-dark adaptation can be further exacerbated by compounds which reduce the rate of rhodopsin regeneration (e.g., 13-cis retinoic acid). Although compounds such as HPR, which reduce total ocular retinoid levels, may also contribute to delayed-dark adaptation, the effect is less pronounced. This point was illustrated in studies which examined the effects of chronic (1 month) 13-cis retinoic acid or HPR administration on electrophysiology of the retina. […] Following exposure to a light source which bleaches approximately 40% of the visual chromophore, wild-type mice require ˜1 hour to regain dark sensitivity (1.0 value on the y-axis); untreated abca4 −/− mice require ˜3-4 hours. 13-cis retinoic acid treatment prolongs the time required to regain dark sensitivity to several hours. […] This finding is relevant for human patients affected with AMD.
Panels D-F of FIG. 9 are electrophysiological measurements of rod function (panel D), rod and cone function (panel E) and recovery from photobleaching (panel F).

abca4 −/− mice = experiment: A2E levels after withdrawal of chronic treatment; type: in vivo, mouse
Procedure: Latent Effects of HPR on Arresting A2E Accumulation —One feature identified during the HPR trials was a therapeutic latency effect following withdrawal of HPR. In these studies, chronic treatment of abca4 −/− mice (10 mg HPR/kg, i.p.) was stopped after 28 days. A2E levels were then measured 12, 28 and 42 days following the final HPR dose. […] This effect was not observed in animals treated with 13-cis retinoic acid, a result that may be due to the capacity of RPE cells to adapt to, and maintain, low steady-state retinoid levels. […] These findings indicate that high steady-state levels of competitive inhibitors such as 13-cis retinoic acid must be maintained for therapeutic efficacy.

mice = conditions: cited from earlier work
abca4 null mutant mice = experiment: A2E and A2PE-H2 in eyes after chronic treatment (HPLC); type: in vivo, mouse; conditions: 13-cis retinoic acid 40 mg/kg, chronic (1 month)
Procedure: Tissue Extraction. Eye samples were thawed on ice in 1 ml of PBS, pH 7.2 and homogenized by hand using a Duall glass-glass homogenizer. The sample was further homogenized following the addition of 1 ml chlorofomm/methanol (2:1, v/v). The sample was transferred to a boroscilicate tube and lipids were extracted into 4 mls of chloroform. The organic extract was washed with 3 mls PBS, pH 7.2 and the samples were then centrifuged at 3,000×g, 10 min. The choloroform phase was decanted and the aqueous phase was re-extracted with another 4 mls of chloroform. Following centrifugation, the chloroform phases were combined and the samples were taken to dryness under nitrogen gas. Samples residues were resuspended in 100 μl hexane and analyzed by HPLC as described below.
HPLC Analysis. Chromatographic separations were achieved on an Agilent Zorbax Rx-Sil Column (5 μm, 4.6×250 mm) using an Agilent 1100 series liquid chromatograph equipped with fluorescence and diode array detectors. The mobile phase (hexane/2-propanol/ethanol/25 mM KH2PO4, pH 7.0/acetic acid; 485/376/100/50/0.275, v/v) was delivered at 1 ml/min. Sample peak identification was made by comparison to retention time and absorbance spectra of authentic standards. Data are reported as peak fluorescence (L.U.) obtained from the fluorescence detector.
We initiated a one-month study to evaluate the effects of HPR on reduction of A2E and A2E precursors in abca4 null mutant mice. HPR was administered in DMSO (20 mg/kg, ip) to abca4 null mutant mice (BL6/129, aged 2 months) daily for a period of 28 days. Control age/strain matched mice received only the DMSO vehicle. Mice were sampled at 0, 14, and 28 days (n=3 per group), the eyes were enucleated and chloroform-soluble constituents (lipids, retinoids and lipid-retinoid conjugates) were extracted. Mice were sacrificed by cervical dislocation, the eyes were enucleated and individually snap frozen in cryo vials. The sample extracts were then analyzed by HPLC with on-line fluorescence detection. Results from this study show remarkable, early reductions in the A2E precursor, A2PE-H2, see FIG. 4a, and subsequent reductions in A2E, see FIG. 4b. […] A similar study may be undertaken to ascertain effects of HPR treatment on the electroretinographic and morphological phenotypes.
ABCA4 null mutant mice were given the indicated dose of HPR in DMSO or DMSO alone daily for 28 days (n=16 mice per treatment group). At study onset, mice in the 2.5 mg/kg group were 2 months of age, mice in the other treatment groups were 3 months of age. At the indicated times, representative mice were taken from each group (n =4) for analysis of A2E precursor compounds (see FIG. 10, A2PE-H2, panels A, C and E) and A2E (see FIG. 10, panels B, D and F). Eyes were enucleated, hemisected and lipid soluble components were extracted from the posterior pole by chloroform/methanol-water phase partitioning. Sample extracts were analyzed by LC. Identity of the eluted compounds was confirmed by UV-vis absorption spectroscopy and co-elution of sample peaks with authentic standards. Note: limitations in appropriately age and strain-matched mice in the 10 mg/kg group prevented analysis at the 14-day interval.
Extraction and Analysis of Retinoids and A2E. Steady-state levels of retinoids and A2E in eyecups of ABCA4−/− mice were determined following daily administration (28 days) of HPR (FIG. 12). Mice were sacrificed, the eyes enucleated, and the posterior portion of each eye was used for extraction of retinoids or A2E. Methodologies used for extraction of retinoids and A2E from eye tissue and HPLC analysis techniques have been described. See, e.g., Mata N L, Weng J, Travis G H. Biosynthesis of a major lipofuscin fluorophore in mice and humans with ABCR-mediated retinal and macular degeneration. Proc Natl Acad Sci USA. 2000; 97:7154-7159; Weng J, et al.; Cell. 1999;98:13-23; Mata N L, et al.; Invest. Ophthalmol. Visual Sci. 2001; 42:1685-1690. […]

TTR binding to RBP = TTR binding to RBP (Homo sapiens, UniProt P02753); experiment: Size exclusion study of TTR binding to RBP (Example 16); conditions: for binding of ligand-RBP to TTR: 10 μM RBP, 10 μM TTR, room temperature, 1 hour
Procedure: Apo-RBP at 10 μM was incubated with 50 μM of MPR in PBS at room temperature for 1 hour. 10 μM of TTR was then added to the solution, and the mixture was incubated for another hour at room temperature. 50 μl of the sample mixtures with and without TTR addition were analyzed by BioRad Bio-Sil SEC125 Gel Filtration Column (300×7.8 mm). In control experiments, atROL-RBP and atROL-RBP-TTR mixture were analyzed in the same manner.

Apo-RBP = Apo-RBP (Homo sapiens, UniProt P02753); experiment: Fluorescence quenching study with Apo-RBP (Example 15); type: binding
Procedure: Apo-RBP at 0.5 μM was incubated with 0, 0.25, 0.5, 1 and 2 μM of MPR in PBS at room temperature for 1 hour, respectively. As controls, the same concentration of Apo-RBP was also incubated with 1 μM of HPR or 1 μM of atROL. All mixtures contained 0.2% Ethanol (v/v). The emission spectra were measured between 290 nm to 550 nm with excitation wavelength at 280 nm and 3 nm bandpass.

Structure (SMILES) | time required to regain dark sensitivity [1] | A2E levels after withdrawal (therapeutic latency effect) (abca4 −/− mice; chronic treatment (HPR 10 mg/kg i.p.) stopped after 28 days, measured 12, 28 and 42 days later) | photoreceptor function and ocular retinoid levels following withdrawal (abca4 −/− mice; mouse, in vivo) | 11-cis retinyl esters (mice; increased 13-cis retinoic acid) | levels of 11-cis retinal (mice; increased doses of 13-cis retinoic acid) | reduction in A2E (abca4 null mutant mice) [%] | binding to RBP (360 nm absorbance in RBP elution peak) (TTR binding to RBP; 10 μM Apo-RBP, 50 μM MPR) | binding of ligand-RBP to TTR (TTR binding to RBP) | binding to RBP relative to HPR (Apo-RBP) | quenching of RBP fluorescence (Apo-RBP; 0.5 μM Apo-RBP, 0-2 μM MPR, PBS, room temperature, 1 hour) | degree of quenching compared with other RBP ligands (Apo-RBP; controls 1 μM HPR, 1 μM atROL) | MPR concentration at which quenching saturated (Apo-RBP; for 0.5 μM of RBP) [µM]
CC1=C(/C=C/C(C)=C/C=C/C(C)=C\C(=O)O)C(C)(C)CCC1 [13-cis retinoic acid] | several hours | not observed | quickly returned to baseline values | increased dramatically | significantly reduced | ~50 |  |  |  |  |  | 
COc1ccc(NC(=O)\C=C(C)/C=C/C=C(C)\C=C\C2=C(C)CCCC2(C)C)cc1 (stereo in doubt) [MPR, N-(4-methoxyphenyl)retinamide] |  |  |  |  |  |  | RBP binds to MPR | did not bind to TTR; also recorded: inhibits the binding of TTR to RBP | more weakly | concentration-dependent quenching | smaller than those by atROL and HPR | 1
CC1=C(/C=C/C(C)=C/C=C/C(C)=C/CO)C(C)(C)CCC1 [atROL, all-trans retinol] |  |  |  |  |  |  |  | binds to TTR |  |  |  | 
